Measurements as given in patent US6849761B2, “Substituted naphthoic acid derivatives useful in the treatment of insulin resistance and hyperglycemia” (Wyeth, priority 2002, dated 2005).
Structures can show the parent of a compound that is named as a salt.

Molecular target: T1, human-derived recombinant PTPase-1B (hPTP-1B) (Homo sapiens, UniProt P18031)
T1 sequence (P18031 1-435): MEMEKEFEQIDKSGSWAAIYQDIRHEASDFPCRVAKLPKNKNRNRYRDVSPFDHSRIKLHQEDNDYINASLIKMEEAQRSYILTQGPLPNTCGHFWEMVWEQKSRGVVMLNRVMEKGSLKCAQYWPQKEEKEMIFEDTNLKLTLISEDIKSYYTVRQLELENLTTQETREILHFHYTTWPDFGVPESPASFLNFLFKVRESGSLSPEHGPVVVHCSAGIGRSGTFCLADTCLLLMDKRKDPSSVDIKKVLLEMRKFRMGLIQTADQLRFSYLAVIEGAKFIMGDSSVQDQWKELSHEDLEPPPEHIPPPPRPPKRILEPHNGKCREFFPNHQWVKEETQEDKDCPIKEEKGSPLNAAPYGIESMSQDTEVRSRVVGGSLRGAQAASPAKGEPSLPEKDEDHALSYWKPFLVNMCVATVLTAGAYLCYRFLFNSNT
Assay: PTP-1B inhibition assay (DIFMUP fluorescence kinetic assay)
Assay type: biochemical
Details: inhibitor at 40 μM; 20 μM DIFMUP; 1 nM enzyme; calculated from average velocity Va vs control
Protocol: Measurement of PTPase activity: Compounds are assayed in an enzyme activity-based assay. PTP-1B is known to dephosphorylate phosphopeptides. This assay is a fluorescence intensity based kinetic assay, taking advantage of a non-peptidyl substrate, 6,8-difluoro-4-methylumbelliferyl phosphate (DIFMUP). When excited at 358 nm, the dephosphorylated product of DIFMUP emits at 450 nm.
Examples 1-5 (set forth below) were analyzed as follows. The assay was conducted in black 384-well non-treated plates (Costar#3710). The assay buffer contained 50 mM 3,3-dimethyl glutaric acid, pH 7.0, 48 mM NaCl, 1 mM EDTA. Inhibitors were prepared as DMSO solution and diluted to desired concentrations using 50 mM HEPES, pH 7.4. PTP-1B was diluted to a 2.5 nM working stock using the assay buffer containing additional 0.001% (w/v) hydrogenated Triton X-100. DIFMUP was diluted to 40 μM using the assay buffer. 5 μl of inhibitor was first dispensed into assay plate. In cases of control reactions, 5 μl of the assay buffer was dispensed. This was followed by 25 μl of DIFMUP working stock. The reaction was then initiated by the addition of 20 μl of PTP-1B working stock. The final DIFMUP concentration was 20 μM (˜1.6×Km). The final enzyme concentration was 1 nM and the detergent concentration was 0.0004% (w/v). Typical inhibitor concentrations were from 0.08 to 40 μM. The reaction progress was monitored continuously for 30 min.
Calculations: For data analysis, the last five data points were used to obtain a slope corresponding to the estimated steady-state velocity (Vs), and the overall progress curves were used to obtain the average velocity (Va), by linear regression in both cases. The apparent final potency of inhibitor (Kiapp) was then calculated from Vs data, using the standard hyperbolic inhibition equation. The IC50 values were calculated from Va data using the sigmoidal inhibition equation. % inhibition values were calculated from Va values of inhibitor at 40 μM, and the average Va value of control reactions.

| Structure (SMILES) | inhibition at 40 µM [%] |
| --- | --- |
| COc1ccc2cc(C(=O)O)ccc2c1CNCc1ccc(OC(F)(F)F)cc1 [Example 1, 6-Methoxy-5-({[4-(trifluoromethoxy)benzyl]amino}methyl)-2-naphthoic acid] | 50 |
| COc1ccc2cc(C(=O)O)ccc2c1CNCc1ccc(F)cc1 [Example 2, 5-{[(4-Fluorobenzyl)amino]methyl)-6-methoxy-2-naphthoic acid] | 37 |
| COc1ccc2cc(C(=O)O)ccc2c1CNCc1ccc(S(N)(=O)=O)cc1 [Example 3, 5-({[4-(Aminosulfonyl)benzyl]amino}methyl)-6-methoxy-2-naphthoic acid] | 23 |
| COc1ccc2cc(C(=O)O)ccc2c1CNCc1ccc(N(C)C)cc1 [Example 4, 5-({[4-(Dimethylamino)benzyl]amino}methyl)-6-methoxy-2-naphthoic acid] | 34 |
| O=C(O)COc1ccc2cc(C(=O)O)ccc2c1CNCc1ccc(OC(F)(F)F)cc1 [Example 5, 6-(Carboxymethoxy)-5-({[4-(trifluoromethoxy)benzyl]amino}methyl)-2-naphthoic acid] | 38 |

Test system: not given
Assay: not given
Details: not given

| Structure (SMILES) | melting point |
| --- | --- |
| COc1ccc2cc(C(=O)O)ccc2c1CNCc1ccc(OC(F)(F)F)cc1 (as salt: salt) [Example 1, 6-Methoxy-5-({[4-(trifluoromethoxy)benzyl]amino}methyl)-2-naphthoic acid] | 235 to 237 °C |
| COc1ccc2cc(C(=O)O)ccc2c1CNCc1ccc(F)cc1 (as salt: salt) [Example 2, 5-{[(4-Fluorobenzyl)amino]methyl)-6-methoxy-2-naphthoic acid] | 268 to 270 °C (dec.) |
| COc1ccc2cc(C(=O)O)ccc2c1CNCc1ccc(S(N)(=O)=O)cc1 (as salt: salt) [Example 3, 5-({[4-(Aminosulfonyl)benzyl]amino}methyl)-6-methoxy-2-naphthoic acid] | 283 to 285 °C (dec.) |
| COc1ccc2cc(C(=O)O)ccc2c1CNCc1ccc(N(C)C)cc1 (as salt: salt) [Example 4, 5-({[4-(Dimethylamino)benzyl]amino}methyl)-6-methoxy-2-naphthoic acid] | > 215 °C (dec.) |
| O=C(O)COc1ccc2cc(C(=O)O)ccc2c1CNCc1ccc(OC(F)(F)F)cc1 [Example 5, 6-(Carboxymethoxy)-5-({[4-(trifluoromethoxy)benzyl]amino}methyl)-2-naphthoic acid] | > 266 °C (dec.) |
